Measured values reported in patent US9636343B2, “Composition for preventing and treating acetaminophen inducing hepatotoxicity containing TNP(N2-(m-Trifluorobenzyl), N6-(p-nitrobenzyl)purine) as an effective ingredient” (Korea Advanced Institute of Science and Technology, priority 2015, dated 2017).

Assays:
[1] = test system: human embryonic stem cell-derived liver cells; assay: Acetaminophen caused apoptosis (cell survival rate, trypan blue) in human embryonic stem cell-derived liver cells; format: cell-based; details: hESC-derived liver cells; acetaminophen 25 mM together with TNP 100 μM, 18 hours; FIG. 2
Experimental: Particularly, CHA-hESC cell line was cultured in the conditioned medium with feeder-free system for 3 days to be confluent. Upon completion of the culture, the hESC cells were cultured in RPMI-1640 (Hyclone, USA) supplemented with 50 ng/ml of Activin A (Peprotech, USA) for 5 days to induce the differentiation. The differentiated cells were cultured in the hepatocyte culture medium (HCM; Lonza, USA) supplemented with 30 ng/ml of fibroblast growth factor 4 (Peprotech) and 20 ng/ml of bone morphogenetic protein 2 (BMP2; Peprotech) for 5 days. Then, the cells were further cultured in the hepatocyte culture medium supplemented with 20 ng/ml of hepatocyte growth factor (HGF; Peprotech) for another 5 days to induce the differentiation of hESC into hepatocytes. The differentiated hepatocytes were cultured in the hepatocyte culture medium supplemented with 10 ng/ml of oncostatin M (R&D Systems, USA) and 0.1 μM of dexamethasone (Sigma) for 5 days to induce maturation of the hepatocytes. At last, the mature hepatocytes were obtained. […]
Particularly, the liver cells on the 19th day from the differentiation from human stem cells were distributed in a 6 well plate at the concentration of 90% each well. […] This experiment was performed in triplicate and the cell survival rate was analyzed based on the results. […] The maximum limits of significance were determined as p<0.05.

[2] = test system: mouse derived liver cells; assay: Acetaminophen caused apoptosis (cell survival rate) in mouse derived liver cells; format: cell-based; details: acetaminophen 25 mM together with TNP 100 μM, 18 hours, FIG. 3
Text: Particularly, the male C57BL/6J mouse at 10˜12 weeks was anesthetized by administrating Avertin via intraperitoneal injection, and the abdomen was opened. 24 gauge catheter was inserted in the portal vein to perfuse with a perfusion solution (1.42 M Nacl, 0.067 M Kcl, 0.1 M HEPES PH 7.4, 0.05 M EGTA). Then, a digestion solution comprising collagenase (Worthington, USA) was circulated. After the liver cells were digested, the mesenteric membrane was peeled off to separate liver cells, followed by filtering with nylon mesh. The filtrate was centrifuged at 100×g for 3 minutes. The supernatant was discarded and the precipitated liver cells were suspended in HBSS buffer (Hanks' Balanced salt solution, WelGene), followed by centrifugation. The precipitated liver cells were centrifuged at 2400 rpm for 10 minutes in Percol solution (autoclaved percoll (Sigma), 10×PBS, 1 M HEPES pH 7.4). The supernatant was discarded and the precipitated liver cells were suspended in HBSS buffer (Hanks' Balanced salt solution, WelGene), followed by centrifugation again at 100×g. […]
Particularly, the mouse derived liver cells were distributed in a 6 well plate at the concentration of 100% each well. The cell survival rate was calculated by the same manner as described in Experimental Example 1. […] The maximum limits of significance were determined as p<0.05.

[3] = test system: human hepatoma cell line HepG2; assay: Acetaminophen caused apoptosis (cell survival rate) in human hepatoma cell line HepG2; format: cell-based; details: acetaminophen 25 mM together with TNP 100 μM, 18 hours, FIGS. 4 and 5
Experimental: The human hepatoma cell line HepG2 was distributed in a 6 well plate precoated with gelatin at the density of 1×10^6 cells/ml, followed by culture for 24 hours for cell adhesion. The culture medium herein was DMEM (Biowest) supplemented with 10% FBS, 10 nM dexamethasone, 10 nM insulin, and penicillin/streptomycin (100 μg/ml). The cells were cultured in a 37° C. incubator under the control of temperature and humidity with supplying a mixed gas containing CO2 by 5%.
The changes in acetaminophen caused apoptosis according to the treatment of TNP were investigated in the human hepatoma cell line HepG2 cultured by the same manner as described in Example 3.
Particularly, the human hepatoma cell line HepG2 was distributed in a 6 well plate at the concentration of 90% each well. The cell survival rate was calculated by the same manner as described in Experimental Example 1. All the statistic treatments in this invention were presented as mean±SD and the statistic analysis was performed by using Student's t-test. The maximum limits of significance were determined as p<0.05.

[4] = test system: reduced glutathione (GSH) in mouse derived liver cells; assay: Intracellular reduced glutathione (GSH) level, GSH-Glo Glutathione Assay, in mouse derived liver cells; format: cell-based; details: FIG. 6
Experimental: The metabolizing activity of liver cells on acetaminophen according to the treatment of TNP was investigated.
Particularly, the level of the reduced glutathione (GSH) in the mouse derived liver cells treated with acetaminophen and TNP by the same manner as described in Experimental Example 2 was measured. The measurement of the reduced glutathione was performed by using GSH-Glo Glutathione Assay kit (Promega) with Tristar2 LB 942 plate reader.

phosphorylated JNK [5] = assay: JNK phosphorylation (Western blotting) in mouse derived liver cells; format: cell-based; details: acetaminophen together with TNP, FIG. 7
Experimental: (§1) The regulation of response against stress caused by acetaminophen in liver cells according to the treatment of TNP was investigated.
Particularly, the mouse derived liver cells treated with acetaminophen and TNP by the same manner as described in Experimental Example 2 were obtained. Cell extract was prepared for protein assay. Then, SDS-PAGE and Western blotting were performed. The cells were lysed in 10 ml of SDS buffer (50 mM Tris-HCl, 1% IGEPAL CA-630, 0.25% deoxycholic acid, 150 mM NaCl, 1 mM ethylene-diamine tetra acetic acid, 1 mM NaF, and 0.1% sodium dodecyl sulfate, pH 7.4) containing protease inhibitor cocktail (Complete Mini, Roche, Germany). The cell lysate was placed in ice for 20 minutes, followed by centrifugation at 4° C., at 13000 rpm, for 10 minutes. Upon completion of the centrifugation, the protein in the supernatant was quantified (Bio-Rad Laboratories, USA). 50 μg of the protein was loaded for SDS-PAGE (SDS-polyacrylamide gel electrophoresis). The electrophoresed protein was transferred onto Immobilon-P transfer membrane (Millipore Corporate, USA) by using electroblotting. The membrane was then loaded in TBS (Tris-buffered saline) containing 0.1% Tween 20 and 10% milk powder, followed by blocking for 1 hour. […] The activity was analyzed by using Image J software (version 1.37, NIH, USA).

phosphorylated JNK [6] = assay: JNK phosphorylation (Western blotting) in human hepatoma cell line HepG2; format: cell-based; details: acetaminophen together with TNP, FIG. 8
Experimental: as §1
Particularly, the human hepatoma cell line HepG2 treated with acetaminophen and TNP by the same manner as described in Experimental Example 3 was obtained. Cell extract was prepared for protein assay. Then, SDS-PAGE and Western blotting were performed by the same manner as described in Experimental Example 5.

male C57BL/6J mouse [7] = assay: Individual survival rate in acetaminophen treated mouse model; format: in vivo; details: acetaminophen 500 mg/kg orally, then TNP 10 mg/kg intraperitoneal, FIG. 9
Experimental: The inventors investigated whether or not TNP had the activity of protecting liver cells from the toxicity caused by acetaminophen in an animal model.
Particularly, the male C57BL/6J mouse at 8˜10 weeks was orally administered with 500 mg/kg of acetaminophen (Sigma) dissolved in water. Then, the mouse was administered with 10 mg/kg of TNP (Calbiocham) dissolved in olive oil (Sigma) via intraperitoneal injection, followed by investigation of individual survival rate. Statistical analysis was performed by Kaplan-Meier survival analysis, and the maximum limit of the significance was determined as p<0.05.

male C57BL/6J mouse [8] = assay: Liver toxicity in acetaminophen treated mouse model: histopathological analysis and blood analysis (AST and ALT); format: in vivo; details: acetaminophen 500 mg/kg orally, TNP 10 mg/kg intraperitoneal, 6 hours later
Experimental: (§2) To investigate the preventing effect of TNP on the acetaminophen caused liver toxicity in the animal model of Example 7, tissues, blood, and JNK phosphorylation were analyzed.
(§3) Particularly, acetaminophen and TNP were injected to the male mouse by the same manner as described in Example 7. 6 hours later, the liver was extracted from the mouse, followed by histopathological analysis, blood analysis (AST and ALT), and stress signaling activity (JNK) analysis. For the blood analysis, a blood sample was obtained from orbit of the mouse. The blood sample was centrifuged at 13,000 rpm for 10 minutes to obtain serum. AST and ALT analysis was performed (Idexx VetTest 8008 chemistry analyzer) with 100 μl of the serum obtained above. To investigate the stress signaling activity, the liver tissues extracted from the liver taken out above were loaded in RIPA medium (1 M tris-Cl (PH7.4), 1 M NaCl, 0.5 M EDTA, NP-40, 10% sodium deoxycholate, 10% SDS), followed by lysis with a homogenizer. After the centrifugation, the supernatant was collected, followed by SDS-PAGE and Western blotting. The phosphorylated JNK and the total JNK were quantified by Western blotting by the same manner as described in Example 5.

phosphorylated JNK [9] = assay: Stress signaling activity (JNK phosphorylation) in liver tissue of acetaminophen treated mouse model; format: in vivo; details: acetaminophen 500 mg/kg orally, TNP 10 mg/kg intraperitoneal, 6 hours later, FIG. 12
Experimental: as §2, §3

O=[N+]([O-])c1ccc(CNc2nc(NCc3cccc(C(F)(F)F)c3)nc3[nH]cnc23)cc1 [TNP, N2-(m-Trifluorobenzyl), N6-(p-nitrobenzyl)purine]
apoptosis of liver cells caused by acetaminophen [1]: significantly suppressed | apoptosis of liver cells caused by acetaminophen [2]: significantly suppressed | apoptosis of liver cells caused by acetaminophen [3]: significantly suppressed | decrease of the reduced glutathione caused by acetaminophen ([4]; acetaminophen together with TNP): back to increase | reduced glutathione concentration in the liver cells ([4]; treatment of TNP alone): increased | phosphorylated JNK signal increased by the acetaminophen caused stress response (phosphorylated JNK [5]): significantly suppressed | phosphorylated JNK signal increased by the acetaminophen caused stress response (phosphorylated JNK [6]): significantly suppressed | individual survival rate (male C57BL/6J mouse [7]): effect of protecting a mouse from the acetaminophen caused liver toxicity | level of ALT (liver toxicity serum index) (male C57BL/6J mouse [8]; mouse serum, FIG. 11): significantly decreased | level of AST (liver toxicity serum index) (male C57BL/6J mouse [8]; mouse serum, FIG. 11): significantly decreased | necrosis in liver tissue (histopathological analysis) (male C57BL/6J mouse [8]; mouse, FIG. 10): only minor necrosis | increase of phosphorylated JNK signal in liver tissue (phosphorylated JNK [9]): significantly suppressed
